Reference: ChEMBL document CHEMBL1921670, “Discovery and optimization of indole and 7-azaindoles as Rho kinase (ROCK) inhibitors (part-II)” (Bioorg Med Chem Lett, 2011)

Legend:
[1] = target: Rho-associated protein kinase 2 (Homo sapiens, UniProt O75116); experiment: Inhibition of ROCK2
[2] = target: Rho-associated protein kinase 1 (Homo sapiens, UniProt Q13464); experiment: Inhibition of ROCK1
[3] = Inhibition of PKA
[4] = Inhibition of myosin light chain bisphosphorylation by cell-based assay
[5] = Half life in human liver microsomes; type: ADME, Microsome
CYP1A2 = target: T1, CYP1A2 (Homo sapiens, UniProt P05177); experiment: Inhibition of CYP1A2 at 10 uM; type: ADME
T1 sequence (P05177 whole entry): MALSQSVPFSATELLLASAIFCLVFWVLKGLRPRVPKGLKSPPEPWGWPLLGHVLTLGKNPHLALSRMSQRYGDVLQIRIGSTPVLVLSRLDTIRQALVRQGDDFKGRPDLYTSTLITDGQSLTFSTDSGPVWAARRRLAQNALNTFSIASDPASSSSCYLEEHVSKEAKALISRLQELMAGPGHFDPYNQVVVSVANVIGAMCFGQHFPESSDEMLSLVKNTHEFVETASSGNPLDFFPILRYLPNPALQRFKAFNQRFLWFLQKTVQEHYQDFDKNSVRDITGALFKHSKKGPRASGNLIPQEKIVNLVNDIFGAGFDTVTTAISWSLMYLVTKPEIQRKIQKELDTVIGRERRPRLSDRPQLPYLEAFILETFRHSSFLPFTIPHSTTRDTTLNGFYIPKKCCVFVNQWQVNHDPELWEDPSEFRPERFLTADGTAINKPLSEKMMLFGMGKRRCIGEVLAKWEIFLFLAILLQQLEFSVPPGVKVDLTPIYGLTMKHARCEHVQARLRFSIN

CYP2C9 = CYP2C9 (Homo sapiens, UniProt P11712); experiment: Inhibition of CYP2C9 at 10 uM; type: ADME
CYP2D6 = CYP2D6 (Homo sapiens, UniProt P10635); experiment: Inhibition of CYP2D6 at 10 uM; type: ADME
CYP3A4 = CYP3A4 (Homo sapiens, UniProt P08684); experiment: Inhibition of CYP3A4 at 10 uM; type: ADME
[6] = Clearance in rat at 1 mg/kg, iv or 2 mg/kg, po; type: ADME, organism-based; details: in vivo
[7] = Volume of distribution at steady state in rat at 1 mg/kg, iv or 2 mg/kg, po; type: ADME, organism-based; details: in vivo, read-out: Vdss
[8] = Half life in rat at 1 mg/kg, iv or 2 mg/kg, po; type: ADME, organism-based; details: in vivo
[9] = Oral bioavailability in rat at 2 mg/kg; type: ADME, organism-based; details: in vivo
[10] = AUC in rat at 1 mg/kg, iv; type: ADME, organism-based; set-up: dose 1 mg/kg, route intravenous; details: plasma

CYP2C9, sequence (P11712 whole entry): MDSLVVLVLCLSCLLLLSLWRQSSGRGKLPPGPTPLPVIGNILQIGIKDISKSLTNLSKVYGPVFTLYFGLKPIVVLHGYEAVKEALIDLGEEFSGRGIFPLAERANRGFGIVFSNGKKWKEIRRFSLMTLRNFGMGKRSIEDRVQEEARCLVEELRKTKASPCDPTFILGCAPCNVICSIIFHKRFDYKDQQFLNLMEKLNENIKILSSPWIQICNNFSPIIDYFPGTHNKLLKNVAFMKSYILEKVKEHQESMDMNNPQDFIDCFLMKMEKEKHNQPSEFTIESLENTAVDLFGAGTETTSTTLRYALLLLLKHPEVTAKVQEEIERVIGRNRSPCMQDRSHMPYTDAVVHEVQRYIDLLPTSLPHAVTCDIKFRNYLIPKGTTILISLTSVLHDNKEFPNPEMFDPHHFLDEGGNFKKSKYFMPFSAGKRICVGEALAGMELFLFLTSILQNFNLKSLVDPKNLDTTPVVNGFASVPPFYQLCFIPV
Rho-associated protein kinase 1, sequence (Q13464 whole entry): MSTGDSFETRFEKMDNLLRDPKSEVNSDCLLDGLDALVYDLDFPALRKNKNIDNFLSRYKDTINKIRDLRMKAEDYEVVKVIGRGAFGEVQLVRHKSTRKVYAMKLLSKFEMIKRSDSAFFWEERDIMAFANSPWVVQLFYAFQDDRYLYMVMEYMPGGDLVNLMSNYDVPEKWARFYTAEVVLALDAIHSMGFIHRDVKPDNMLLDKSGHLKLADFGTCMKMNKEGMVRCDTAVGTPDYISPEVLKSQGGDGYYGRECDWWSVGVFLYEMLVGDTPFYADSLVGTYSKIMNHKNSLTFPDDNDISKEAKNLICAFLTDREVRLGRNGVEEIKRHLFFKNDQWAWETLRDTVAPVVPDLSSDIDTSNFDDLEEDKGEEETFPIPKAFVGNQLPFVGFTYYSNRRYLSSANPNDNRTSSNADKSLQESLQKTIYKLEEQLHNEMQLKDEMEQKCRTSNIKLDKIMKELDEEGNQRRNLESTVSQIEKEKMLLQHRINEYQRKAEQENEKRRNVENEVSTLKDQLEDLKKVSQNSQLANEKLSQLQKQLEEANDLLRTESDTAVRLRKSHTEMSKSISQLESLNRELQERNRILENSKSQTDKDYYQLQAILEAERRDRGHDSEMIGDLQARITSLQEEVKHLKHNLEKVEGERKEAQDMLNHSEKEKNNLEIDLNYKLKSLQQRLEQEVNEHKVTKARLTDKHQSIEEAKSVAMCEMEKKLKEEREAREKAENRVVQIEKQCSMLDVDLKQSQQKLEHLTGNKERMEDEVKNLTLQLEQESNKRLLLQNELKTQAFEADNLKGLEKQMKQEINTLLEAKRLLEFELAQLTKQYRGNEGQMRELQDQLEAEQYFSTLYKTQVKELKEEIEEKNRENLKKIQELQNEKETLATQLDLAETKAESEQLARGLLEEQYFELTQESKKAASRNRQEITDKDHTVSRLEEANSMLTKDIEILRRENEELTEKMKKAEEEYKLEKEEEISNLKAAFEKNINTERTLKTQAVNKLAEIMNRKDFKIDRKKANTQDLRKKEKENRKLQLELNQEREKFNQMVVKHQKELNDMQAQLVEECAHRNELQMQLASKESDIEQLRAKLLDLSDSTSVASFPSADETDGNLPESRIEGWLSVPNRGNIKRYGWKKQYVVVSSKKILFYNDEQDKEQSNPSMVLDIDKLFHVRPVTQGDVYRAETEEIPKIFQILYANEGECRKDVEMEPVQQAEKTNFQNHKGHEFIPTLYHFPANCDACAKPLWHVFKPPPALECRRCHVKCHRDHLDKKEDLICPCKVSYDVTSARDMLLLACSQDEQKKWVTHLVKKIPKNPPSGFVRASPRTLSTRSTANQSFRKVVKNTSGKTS
CYP3A4, sequence (P08684 whole entry): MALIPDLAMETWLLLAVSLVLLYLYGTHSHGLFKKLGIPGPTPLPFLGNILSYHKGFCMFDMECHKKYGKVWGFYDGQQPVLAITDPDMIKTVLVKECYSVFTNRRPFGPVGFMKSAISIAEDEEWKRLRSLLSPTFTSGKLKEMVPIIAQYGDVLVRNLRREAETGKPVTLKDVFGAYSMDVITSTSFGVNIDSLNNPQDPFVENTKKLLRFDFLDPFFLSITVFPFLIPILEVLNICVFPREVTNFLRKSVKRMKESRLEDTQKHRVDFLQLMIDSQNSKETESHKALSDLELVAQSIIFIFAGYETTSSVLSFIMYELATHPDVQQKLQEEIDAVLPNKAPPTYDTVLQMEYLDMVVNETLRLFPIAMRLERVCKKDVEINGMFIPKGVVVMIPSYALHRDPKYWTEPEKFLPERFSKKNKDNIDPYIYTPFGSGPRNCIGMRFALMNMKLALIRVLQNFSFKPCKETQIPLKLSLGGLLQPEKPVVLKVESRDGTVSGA
Rho-associated protein kinase 2, sequence (O75116 whole entry): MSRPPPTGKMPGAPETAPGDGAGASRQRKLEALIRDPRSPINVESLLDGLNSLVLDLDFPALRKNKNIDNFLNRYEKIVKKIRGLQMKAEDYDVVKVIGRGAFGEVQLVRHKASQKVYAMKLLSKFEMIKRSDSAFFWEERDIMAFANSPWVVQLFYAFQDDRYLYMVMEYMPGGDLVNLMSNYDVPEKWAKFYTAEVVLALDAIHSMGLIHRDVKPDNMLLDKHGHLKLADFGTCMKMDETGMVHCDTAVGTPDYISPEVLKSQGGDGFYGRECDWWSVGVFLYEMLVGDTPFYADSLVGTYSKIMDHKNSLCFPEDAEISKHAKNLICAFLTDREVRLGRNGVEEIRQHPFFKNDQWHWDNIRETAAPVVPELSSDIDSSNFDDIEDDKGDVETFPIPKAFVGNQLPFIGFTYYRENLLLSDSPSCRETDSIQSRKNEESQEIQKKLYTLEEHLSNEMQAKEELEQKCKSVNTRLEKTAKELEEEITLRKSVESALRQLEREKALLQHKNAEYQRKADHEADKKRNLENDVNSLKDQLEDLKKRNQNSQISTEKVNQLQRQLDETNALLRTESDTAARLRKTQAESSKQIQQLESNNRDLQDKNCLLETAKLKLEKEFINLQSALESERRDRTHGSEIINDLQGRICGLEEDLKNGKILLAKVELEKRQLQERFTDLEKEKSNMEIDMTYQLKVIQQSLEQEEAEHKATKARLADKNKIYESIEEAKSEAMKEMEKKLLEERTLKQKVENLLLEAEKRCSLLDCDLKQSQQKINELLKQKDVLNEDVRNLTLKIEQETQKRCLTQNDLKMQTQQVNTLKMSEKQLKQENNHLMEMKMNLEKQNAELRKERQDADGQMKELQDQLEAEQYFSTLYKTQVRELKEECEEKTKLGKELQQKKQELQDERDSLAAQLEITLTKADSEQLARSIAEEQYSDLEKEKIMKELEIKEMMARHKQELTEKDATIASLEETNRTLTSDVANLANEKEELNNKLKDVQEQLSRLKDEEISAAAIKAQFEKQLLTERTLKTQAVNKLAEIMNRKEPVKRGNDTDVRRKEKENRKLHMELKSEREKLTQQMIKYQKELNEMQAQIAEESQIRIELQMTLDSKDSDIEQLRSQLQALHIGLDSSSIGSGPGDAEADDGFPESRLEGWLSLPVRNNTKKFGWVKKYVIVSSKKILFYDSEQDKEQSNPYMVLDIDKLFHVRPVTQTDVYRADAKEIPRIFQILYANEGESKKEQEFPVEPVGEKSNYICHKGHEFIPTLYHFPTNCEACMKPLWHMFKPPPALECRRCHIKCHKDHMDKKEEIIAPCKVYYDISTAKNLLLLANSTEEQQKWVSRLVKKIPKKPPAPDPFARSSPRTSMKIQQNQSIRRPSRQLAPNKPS
CYP2D6, sequence (P10635 whole entry): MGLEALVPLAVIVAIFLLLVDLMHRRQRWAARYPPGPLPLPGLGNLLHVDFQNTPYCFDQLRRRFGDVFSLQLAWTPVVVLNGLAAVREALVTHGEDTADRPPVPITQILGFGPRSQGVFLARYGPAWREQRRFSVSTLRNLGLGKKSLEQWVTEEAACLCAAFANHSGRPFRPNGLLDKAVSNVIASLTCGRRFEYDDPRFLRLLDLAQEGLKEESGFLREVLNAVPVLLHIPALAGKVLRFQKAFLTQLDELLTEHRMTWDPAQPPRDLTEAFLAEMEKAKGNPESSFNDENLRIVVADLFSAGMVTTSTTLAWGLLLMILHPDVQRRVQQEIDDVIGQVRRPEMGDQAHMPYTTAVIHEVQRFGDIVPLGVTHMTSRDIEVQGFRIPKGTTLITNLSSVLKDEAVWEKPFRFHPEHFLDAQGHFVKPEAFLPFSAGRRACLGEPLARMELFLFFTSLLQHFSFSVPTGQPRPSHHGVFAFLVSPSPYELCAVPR

Row | IC50 [1] [nM] | IC50 [2] [nM] | IC50 [3] [nM] | IC50 [4] [nM] | half-life [5] [min] | inhibition at 10 µM (CYP1A2) [%] | inhibition at 10 µM (CYP2C9) [%] | inhibition at 10 µM (CYP2D6) [%] | inhibition at 10 µM (CYP3A4) [%] | SMILES | clearance [6] [mL/min/kg] | Vd [7] [L/kg] | half-life [8] [min] | bioavailability [9] [%] | AUC [10] [µM·h]
1 | 1900 | 6600 | 3700 |  |  |  |  |  |  | COc1cccc(CN(CC[N+]2(C)CCCC2)C(=O)c2cc3ccc(-c4cn[nH]c4)nc3n2C)c1 |  |  |  |  | 
2 | 3 | 40 | 18000 | 130 | 8 | 46 | 86 | 70 | 86 | COc1cccc(CNC(=O)c2[nH]c3cc(-c4cn[nH]c4)ccc3c2CN2CCOCC2)c1 | 32 | 2 | 84 | 0 | 1.2
3 | 8 | 39 | 911 |  | 1 | -15 | -26 | 60 | 34 | COc1cccc(CNC(=O)c2[nH]c3nc(-c4cn[nH]c4)ccc3c2CN2CCN(C)CC2)c1 |  |  |  |  | 
4 | < 1 | 8 | 385 |  | 50 | 41 | 53 | 81 | 51 | COc1cccc(CNC(=O)c2[nH]c3cc(-c4cn[nH]c4)ccc3c2CN2CCCNCC2)c1 |  |  |  |  | 
5 | < 1 | < 1 | 87 | 4 | 9 | 23 | 93 | 53 | 87 | COc1cccc(CNC(=O)c2cn(C)c3cc(-c4cn[nH]c4)ccc23)c1 |  |  |  |  | 
6 | 19 | 76 | 5000 |  |  |  |  |  |  | CCN(Cc1cccc(OC)c1)C(=O)c1c[nH]c2nc(-c3cn[nH]c3)ccc12 |  |  |  |  | 
7 |  |  | 8000 |  |  |  |  |  |  | COc1cccc(CNC(=O)c2c[nH]c3nc(-c4cn[nH]c4)ccc23)c1 |  |  |  |  | 
8 | 3 | 37 | 2800 | 70 | 46 | -7 | 27 | 9 | 2 | COc1cccc(CN(C)C(=O)c2cc3ccc(-c4cn[nH]c4)cc3[nH]2)c1 |  |  |  |  | 
9 | 310 | 710 | > 20000 |  |  |  |  |  |  | COc1cccc(CNC(=O)c2cc3ccc(-c4cn[nH]c4)cc3n2CCN(C)C)c1 |  |  |  |  | 
10 | 62 | 260 | 3700 |  |  |  |  |  |  | COc1cccc(CN(CCCN2CCN(C)CC2)C(=O)c2c[nH]c3nc(-c4cn[nH]c4)ccc23)c1 |  |  |  |  | 
11 | 1 | 9 | 2200 | 34 | 8 | 3 | 62 | 52 | 36 | COc1cccc(CN(CCN(C)C)C(=O)c2cn(C)c3cc(-c4cn[nH]c4)ccc23)c1 |  |  |  |  | 
12 | 150 | 280 | 5000 |  |  |  |  |  |  | COc1cccc(CNC(=O)c2cc3ccc(-c4cn[nH]c4)nc3n2CC2CC2)c1 |  |  |  |  | 
13 | 220 | 1000 | 2200 |  |  |  |  |  |  | COc1cccc(CN(CCN2CCCC2)C(=O)c2cc3ccc(-c4cn[nH]c4)nc3n2C)c1 |  |  |  |  | 
14 | 18 | 121 | > 20000 |  | 21 | 12 | 26 | 52 | 43 | COc1cccc(CN(CCN2CCCC2)C(=O)c2cc3ccc(-c4cn[nH]c4)nc3[nH]2)c1 |  |  |  |  | 
15 | 2300 | 6900 | > 20000 |  |  |  |  |  |  | COc1cccc(CN(C)C(=O)c2cc3ccc(-c4cn[nH]c4)cc3n2CCN(C)C)c1 |  |  |  |  | 
16 | 5 | 21 |  |  | 10 | 36 | 96 | 76 | 93 | COc1cccc(CNC(=O)c2cn(-c3ccccc3)c3cc(-c4cn[nH]c4)ccc23)c1 |  |  |  |  | 

Row | IC50 [1] [nM] | IC50 [2] [nM] | IC50 [3] [nM] | IC50 [4] [nM] | half-life [5] [min] | inhibition at 10 µM (CYP1A2) [%] | inhibition at 10 µM (CYP2C9) [%] | inhibition at 10 µM (CYP2D6) [%] | inhibition at 10 µM (CYP3A4) [%] | SMILES | clearance [6] [mL/min/kg] | Vd [7] [L/kg] | half-life [8] [min] | bioavailability [9] [%] | AUC [10] [µM·h]
17 | 200 | 1100 | > 20000 |  |  |  |  |  |  | COc1cccc(CN(C)C(=O)c2cc3ccc(-c4cn[nH]c4)cc3n2C)c1 |  |  |  |  | 
18 | 2 | 19 | 4300 |  | 13 | 70 | 94 | 50 | 38 | COc1cccc(CN(C)C(=O)c2c[nH]c3cc(-c4cn[nH]c4)ccc23)c1 |  |  |  |  | 
19 | 24 | 88 | 1800 |  |  |  |  |  |  | COc1cccc(CNC(=O)c2cc3ccc(-c4cn[nH]c4)cc3n2CCCO)c1 |  |  |  |  | 
20 | < 1 | 3 | 680 | 17 | 4 | 23 | 93 | 58 | 70 | COc1cccc(CN(C)C(=O)c2cn(C)c3cc(-c4cn[nH]c4)ccc23)c1 |  |  |  |  | 
21 | 6 | 30 | > 20000 |  | 9 | -5 | 91 | 25 | 56 | COc1cccc(CN(C(=O)c2c[nH]c3nc(-c4cn[nH]c4)ccc23)C2CC2)c1 |  |  |  |  | 
22 | 9 | 34 | 1500 |  | 68 | 18 | 27 | 48 | 19 | COc1cccc(CNC(=O)c2[nH]c3cc(-c4cn[nH]c4)ccc3c2CN(C)C)c1 |  |  |  |  | 
23 | 16 | 91 | 6100 |  | 4 | 7 | 9 | 28 | 46 | COc1cccc(CNC(=O)c2[nH]c3nc(-c4cn[nH]c4)ccc3c2CN2CCOCC2)c1 |  |  |  |  | 
24 | < 1 | < 1 | 720 |  | 13 | -2 | 77 | 23 | 68 | COc1cccc(CNC(=O)c2cn(C)c3nc(-c4cn[nH]c4)ccc23)c1 |  |  |  |  | 
25 | < 1 | 6 | 1300 | 40 | 1 | 62 | 75 | 86 | 75 | COc1cccc(CNC(=O)c2[nH]c3cc(-c4cn[nH]c4)ccc3c2CN2CCN(C)CC2)c1 |  |  |  |  | 
26 | 10 | 46 | 1600 |  |  |  |  |  |  | COc1cccc(CN(CCCN(C)C)C(=O)c2cc3ccc(-c4cn[nH]c4)cc3[nH]2)c1 |  |  |  |  | 
27 | 4400 | > 20000 |  |  |  |  |  |  |  | COc1cccc(CNC(=O)c2cc3ccc(-c4cn[nH]c4)nc3n2Cc2cccc(OC)c2)c1 |  |  |  |  | 
28 | 11 | 62 | 1640 | 206 | 49 | -2 | 65 | 78 | 59 | COc1cccc(CN(CCN2CCCC2)C(=O)c2cc3ccc(-c4cn[nH]c4)cc3[nH]2)c1 |  |  |  |  | 
29 | 9 | 110 | > 20000 |  |  |  |  |  |  | COc1cccc(CN(C)C(=O)c2cn(CCN(C)C)c3cc(-c4cn[nH]c4)ccc23)c1 |  |  |  |  | 
30 | 4 | 27 | 570 | 25 | 24 | 32 | 83 | 52 | 27 | COc1cccc(CN(C)C(=O)c2cc3ccc(-c4cn[nH]c4)nc3[nH]2)c1 |  |  |  |  | 
31 | 1 | 13 | 2810 | 53 | 14 | 4 | 28 | 31 | 31 | COc1cccc(CN(CCCN(C)C)C(=O)c2cn(C)c3cc(-c4cn[nH]c4)ccc23)c1 |  |  |  |  | 

Row | SMILES | IC50 [1] [nM] | IC50 [2] [nM] | IC50 [3] [nM] | IC50 [4] [nM] | half-life [5] [min] | inhibition at 10 µM (CYP1A2) [%] | inhibition at 10 µM (CYP2C9) [%] | inhibition at 10 µM (CYP2D6) [%] | inhibition at 10 µM (CYP3A4) [%] | clearance [6] [mL/min/kg] | Vd [7] [L/kg] | half-life [8] [min] | bioavailability [9] [%] | AUC [10] [µM·h]
32 | COc1cccc(CN(CCN(C)C)C(=O)c2cn(CCN3CCCC3)c3cc(-c4cn[nH]c4)ccc23)c1 | 2800 | 8900 | > 20000 |  |  |  |  |  |  |  |  |  |  | 
33 | COc1cccc(CNC(=O)c2cn(CCN3CCCC3)c3nc(-c4cn[nH]c4)ccc23)c1 | 8 | 89 | > 20000 |  | 21 | 9 | 51 | 69 | 44 | 114 | 10 | 90 | 0 | 0.3
34 | COc1cccc(CNC(=O)c2cn(CCCO)c3cc(-c4cn[nH]c4)ccc23)c1 | 1 | 3 | 900 |  | 21 | 71 | 87 | 32 | 63 |  |  |  |  | 
